Reference: patent US4935520A, “Compound, oleyl-2-pyridinioethyl phosphate having antifungal and antiprotozoal properties” (Takeda Chemical Industries, Ltd., priority 1982, dated 1990)
Read-outs that look alike come from different tables or passages of the source.

Experiments:
[1] = tested on: Tetrahymena pyriformis W strain; assay: Antiprotozoal activity, MIC; type: cell-based; conditions: broth dilution method, pH 7.0, 28° C., 44 to 48 hours; for MIC: Tetrahymena pyriformis, read-out: MIC against Tetrahymena pyriformis W strain
Description: The antiprotozoal activity values as shown in Table 4 were assayed using Tetrahymena pyriformis W strain as the test organism and an assay medium composed of 20 g of tryptose peptone (manufactured by Difco), 1 g of yeast extract, 2 g of glucose, 1000 ml of distilled water and 10 ml of 1M phosphate buffer (pH 7.0). The incubation was continued at 28° C. for 44 to 48 hours and the minimum inhibitory concentration (MIC) of the compounds of this invention was determined by the broth dilution method.

sarcoma 180 = assay: Effects against sarcoma 180 (survival rate, ICR mice); type: in vivo; conditions: 1 mg per mouse i.p., four days before 1×10^5 cells of sarcoma 180 i.p.; vs physiological saline control
[2] = tested on: Aspergillus niger IFO-6341; assay: Antifungal activity, MIC; type: cell-based; conditions: IFO6341, test organism 1, 1% glucose-bouillon agar medium, serial dilution method
Description: The antimycotic (antifungal) activity values as shown in Table 3 were assayed on various organisms including phytopathogenic microorganisms using 1% glucose-bouillon agar medium, and the minimum inhibitory concentration (MIC) was determined by the serial dilution method.

[3] = tested on: Penicillium citrinum IFO-6352; assay: Antifungal activity, MIC; type: cell-based
[4] = tested on: Saccharomyces cerevisiae IFO-0209; assay: Antifungal activity, MIC; type: cell-based
[5] = tested on: Pyricularia oryzae IFO-5279; assay: microbe, parasite or virus in culture; type: cell-based; conditions: IFO5279
[6] = tested on: Helminthosporium oryzae IFO-7503; assay: Antifungal activity, MIC; type: cell-based; conditions: Bipolaris oryzae, IFO7503
Gibberella fujiknroi = assay: Antifungal activity, MIC; type: cell-based
[7] = tested on: Botrytis cinerea IFO-5365; assay: Antifungal activity, MIC; type: cell-based
[8] = tested on: Helminthosporium sigmoideum IFO-4867; assay: Antifungal activity, MIC; type: cell-based; conditions: Nakataea oryzae, IFO4867
[9] = tested on: Colletctrichum lagenarium IFO-6207; assay: Antifungal activity, MIC; type: cell-based
MM46 carcinoma = assay: Effects against MM46 (surviving mice, C3H/He mice); type: in vivo; conditions: 24th day after transplantation of 1×10^4 MM46 cells i.p.; 250 μg i.p., eight times in total
Description: To each of C3H/He mice group was transplanted intraperitoneally 1×10^4 cells of MM46 carcinoma. Four times from five days to two days before the transplantation and four times from two days to five days after the transplantation, eight times in total, 250 μg of the test compound dissolved in 0.2 ml of physiological saline was administered intraperitoneally. The number of mice surviving on the 24th day after transplantation of the carcinoma cells was compared with that of the control group administered with saline.

[10] = IFO6352, test organism 2, 1% glucose-bouillon agar medium, serial dilution method, read-out: MIC
[11] = test organism 8, 1% glucose-bouillon agar medium, serial dilution method, read-out: MIC
[12] = IFO0209, test organism 3, 1% glucose-bouillon agar medium, serial dilution method, read-out: MIC
[13] = IFO5365, test organism 7, 1% glucose-bouillon agar medium, serial dilution method, read-out: MIC
[14] = test organism 9, 1% glucose-bouillon agar medium, serial dilution method, read-out: MIC

| Compound | MIC against Tetrahymena pyriformis W strain [1] [µg/mL] | Survival Rate (T/C) (sarcoma 180) | MIC [2] [µg/mL] | MIC ([3]; IFO6352) [µg/mL] | MIC ([4]; IFO0209) [µg/mL] | MIC [5] [µg/mL] | MIC [6] [µg/mL] | MIC (Gibberella fujiknroi) [µg/mL] | MIC ([7]; IFO5365) [µg/mL] | MIC [8] [µg/mL] | MIC [9] [µg/mL] | MIC [1] [µg/mL] | MIC [3, 10] [µg/mL] | MIC [8, 11] [µg/mL] | Surviving mice/Test mice (MM46 carcinoma) | MIC [4, 12] [µg/mL] | MIC [7, 13] [µg/mL] | MIC [9, 14] [µg/mL] | MIC (Gibberella fujiknroi; test organism 6, 1% glucose-bouillon agar medium, serial dilution method, read-out: MIC) [µg/mL] |
| --- | --- | --- | --- | --- | --- | --- | --- | --- | --- | --- | --- | --- | --- | --- | --- | --- | --- | --- | --- |
| 2-Trimethylammonioethyl cetyl phosphonate [Production Example 8] | 2 | – | – | – | – | – | – | – | – | – | – | – | – | – | – | – | – | – | – |
| CCCCCCCCCCCCCCOP(=O)([O-])OCC[N+](C)(C)C [Production Example 1, Tetradecyl 2-trimethylammonioethyl phosphate] | – | 217 | 12.5 | 6.25 | 12.5 | 3.12 | 12.5 | 25 | 25 | 6.25 | 3.12 | 2 | – | – | – | – | – | – | – |
| CCCCCCCCCCCCCCOP(=O)([O-])OCC[n+]1ccccc1 [Production Example 2, Tetradecyl 2-pyridinioethyl phosphate] | – | 152 | 25 | – | 50 | 3.12 | 25 | 25 | 50 | – | 3.12 | ≥ 4 | 12.5 | 12.5 | – | – | – | – | – |
| CCCCCCCC/C=C\CCCCCCCCOP(=O)([O-])OCC[N+](C)(C)C [Production Example 3, Oleyl 2-trimethylammonioethyl phosphate] | – | 302 | 12.5 | – | – | 1.56 | 12.5 | 12.5 | – | 1.56 | – | 0.4 | 25 | – | 3/5 | 6.25 | 3.12 | 50 | – |
| CCCCCCCC/C=C\CCCCCCCCOP(=O)([O-])OCC[n+]1ccccc1 [Production Example 4, Oleyl 2-pyridinioethyl phosphate] | – | 308 | 50 | – | – | 3.12 | 50 | – | – | – | 50 | – | 25 | 6.25 | 2/5 | 25 | 6.25 | – | 25 |
| CCCCCCCCCCCCCCCCCCCCCCOP(=O)([O-])OCC[N+](C)(C)C [Production Example 5, Docosyl trimethylammonioethyl phosphate] | – | 167 | – | – | – | – | – | – | – | – | – | > 4 | – | – | – | – | – | – | – |
| CCCCCCCCCCCCCCCCCCOP(=O)([O-])OCC[N+](C)(C)C [Production Example 6, Stearyl 2-trimethylammonioethyl phosphate] | – | 200 | 25 | 25 | 12.5 | 6.25 | 50 | 50 | 6.25 | 3.12 | – | ≤ 1 | – | – | – | – | – | 100 | – |
| CC(C)CCCC(C)CCCC(C)CCCC(C)CCOP(=O)([O-])OCC[N+](C)(C)C (stereo not shown) [Production Example 7, 3,7,11,15-Tetramethylhexadecyl 2-trimethylammonioethyl phosphate] | – | – | – | – | – | 1.56 | – | 6.25 | 25 | – | – | 4 | – | – | – | – | – | 100 | – |
| CCCCCCCCCCCCCCC/C=C/COP(=O)([O-])OCC[N+](C)(C)C [Production Example 10, (E)-2-Octadecenyl 2-trimethylammonioethyl phosphate] | – | – | – | – | – | – | – | – | – | – | – | ≤ 1 | – | – | – | – | – | – | – |
| CCCCCCCCC(CCCCCCCC)OP(=O)([O-])OCC[N+](C)(C)C [Production Example 11, (1-Octyl)nonyl 2-trimethylammonioethyl phosphate] | – | 282 | – | – | – | – | – | – | – | – | – | ≤ 1 | – | – | – | – | – | – | – |
